We go through 15 compounds from US20070020704A1, “Diaryl ureas with kinase inhibiting activity” (priority 2003, published 2007).

Usually melting point stands for the temperature, or range, at which the solid turns liquid. For orientation: IC50 means the concentration that gives 50% inhibition. Lower therefore signals greater potency in that assay.

For one data set, the target named is HER2 Receptor (Homo sapiens, UniProt P04626). Particulars: cellular assay, HER 1 & 2 Pathway.
Data set [1] has as its system MIA PaCa-2 pancreatic (mutant k-Ras) xenograft. The experiment in a line: Tumor treatment, MIA PaCa-2 xenograft model. The data set is classed as in vivo, CB17 SCID female mice. Particulars: p.o., qd×14. On the procedure:
(§1) All treatments were administered p.o. on a qd×14 schedule. […] Similarly, the growth of MIA PaCa-2 tumors was inhibited 44%, 66%, and 73% at dosages of 10, 30, and 100 mg/kg/dose, respectively. The growth of NCI-H460 tumors was inhibited 27% and 56% at dosages of 10 and 30 mg/kg/dose of this Raf kinase inhibitor. The SK-OV-3 model was slightly more sensitive, generating 45%-81% tumor growth inhibitions at dosages of 3 to 100 mg/kg/dose.
HCT 116, SK-OV-3, and MIA PaCa-2 stock tumors were maintained as serial s.c. passages of fragments in CD-1 Nu/Nu female mice (HCT 116 and SK-OV-3) or CB17 SCID female mice (MIA-PaCa-2). Treatments were administered orally and were initiated against established tumors. Tumor dimensions were measured via calipers 2-3 times per week and were converted into tumor mass by the formula […], where L and W refer to the largest and smallest dimensions, respectively.

The subject of data set [2] is Raf Pathway phospho-ERK, Melanoma. As to the kind of experiment: Cellular assay Raf pathway phospho-ERK, melanoma. Type of data set: cell-based.
Another data set deals with melanoma. The experiment in a line: Response of a subject having melanoma (PET and CT scans). The data set is classed as in vivo, human. Particulars: 600 mg BID. On the procedure:
A subject having a melanoma was treated with a compound in accordance with the present invention, and then a biopsy sample was assessed using the assay described above.
The subject was then administered a 600 mg BID dose of the compound.
A response to the compound was observed by comparing PET scans taken at baseline vs. the second cycle. […] This response corresponds with a decrease in the percent of nuclei expressing pERK in the post-treatment biopsy. […] The compound utilized was N-[4-chloro-3-(trifluoromethyl)phenyl]-N′-{4-[2-N-methylcarbamoyl-4-pyridyloxy]phenyl}urea.

The subject of data set [3] is Raf Pathway phospho-ERK, Breast. As to the kind of experiment: Cellular assay Raf pathway phospho-ERK, breast (Bio-Plex phospho-ERK1/2 immunoassay). Type of data set: cell-based. The settings on record: Homo sapiens, inhibition of target phosphorylation in whole cells by 50%. As to the method: A 96-well phospho-ERK (PERK) immunoassay, using laser flow cytometry platform has been established to measure inhibition of basal pERK in cell lines. MDA-MB-231 cells were plated at 50,000 cells per well in 96-well microtitre plates in complete growth media. For effects of test compounds on basal pERK1/2 inhibition, the next day after plating, MDA-MB-231 cells were transferred to DMEM with 0.1% BSA and incubated with test compounds diluted 1:3 to a final concentration of 3 μM to 12 nM in 0.1% DMSO. Cells were incubated with test compounds for 2 h, washed, and lysed in Bio-Plex whole cell lysis buffer A. Samples are diluted with buffer B 1:1 (v/v) and directly transferred to assay plate or frozen at −80 C degrees until processed. 50 μL of diluted MDA-MB-231 cell lysates were incubated with about 2000 of 5 micron Bio-Plex beads conjugated with an anti-ERK1/2 antibody overnight on a shaker at room temperature. The next day, biotinylated phospho-ERK1/2 sandwich immunoassay was performed, beads are washed 3 times during each incubation and then 50 μL of PE-strepavidin was used as a developing reagent. The relative fluorescence units of pERK1/2 were detected by counting 25 beads with Bio-Plex flow cell (probe) at high sensitivity. The IC50 was calculated by taking untreated cells as maximum and no cells (beads only) as background.

The subject of another data set is c-KIT phosphor-AKT. As to the kind of experiment: Cellular assay c-KIT pathway phosphor-AKT. The data set is classed as cell-based.
Data set [4] deals with NCI-H460 lung (mutant k-Ras) xenograft. As to the kind of experiment: Tumor treatment, NCI-H460 xenograft model. The data set is classed as in vivo. The settings on record: p.o., qd×14. On the procedure: as §1
For a further data set, the system named is phospho-ERK. The experiment in a line: Immunohistochemical staining of tumor sections with anti-pERK antibodies (melanoma biopsies pre- and post-treatment). The data set is classed as in vivo, human. The settings on record: subject having melanoma, 600 mg BID; post- vs pre-treatment biopsy. The source says: 3. Immunohistochemical Staining of Tumor Sections with Anti-pERK Antibodies
Activated Raf kinase phosphorylates and activates MEK (mitogen-activated protein kinase kinase), which in turn phosphorylates and activates ERK (extracellular signal-regulated kinase), which translocates to the nucleus and modifies gene expression. This pathway is often aberrantly activated in tumor cells due to the presence of activated ras, mutant BRAF, or elevation of growth factor receptors. A semi-quantitative immunohistochemical method was developed to detect phosphorylated ERK (pERK) in human tumor biopsies as a patient selection biomarker for determining whether a patient will be responsive to a compound of the present invention, and also to assess its efficacy. The antibody used was a polyclonal antibody (rabbit) that detects the phosphorylation status of p44 and p42 (phospho-p44/42 MAPK (Thr202/Tyr204)) MAP kinases (ERK1 and ERK2). The procedure was accomplished as follows:
1. Tumor samples were obtained from patients. Samples were embedded in paraffin and sectioned.
2. […]
20. Each tissue section was assessed using the Bioquant TCW98 image analysis system. […]
A subject having a melanoma was treated with a compound in accordance with the present invention, and then a biopsy sample was assessed using the assay described above. […]

Sequence of HER2 Receptor (P04626 23-1255): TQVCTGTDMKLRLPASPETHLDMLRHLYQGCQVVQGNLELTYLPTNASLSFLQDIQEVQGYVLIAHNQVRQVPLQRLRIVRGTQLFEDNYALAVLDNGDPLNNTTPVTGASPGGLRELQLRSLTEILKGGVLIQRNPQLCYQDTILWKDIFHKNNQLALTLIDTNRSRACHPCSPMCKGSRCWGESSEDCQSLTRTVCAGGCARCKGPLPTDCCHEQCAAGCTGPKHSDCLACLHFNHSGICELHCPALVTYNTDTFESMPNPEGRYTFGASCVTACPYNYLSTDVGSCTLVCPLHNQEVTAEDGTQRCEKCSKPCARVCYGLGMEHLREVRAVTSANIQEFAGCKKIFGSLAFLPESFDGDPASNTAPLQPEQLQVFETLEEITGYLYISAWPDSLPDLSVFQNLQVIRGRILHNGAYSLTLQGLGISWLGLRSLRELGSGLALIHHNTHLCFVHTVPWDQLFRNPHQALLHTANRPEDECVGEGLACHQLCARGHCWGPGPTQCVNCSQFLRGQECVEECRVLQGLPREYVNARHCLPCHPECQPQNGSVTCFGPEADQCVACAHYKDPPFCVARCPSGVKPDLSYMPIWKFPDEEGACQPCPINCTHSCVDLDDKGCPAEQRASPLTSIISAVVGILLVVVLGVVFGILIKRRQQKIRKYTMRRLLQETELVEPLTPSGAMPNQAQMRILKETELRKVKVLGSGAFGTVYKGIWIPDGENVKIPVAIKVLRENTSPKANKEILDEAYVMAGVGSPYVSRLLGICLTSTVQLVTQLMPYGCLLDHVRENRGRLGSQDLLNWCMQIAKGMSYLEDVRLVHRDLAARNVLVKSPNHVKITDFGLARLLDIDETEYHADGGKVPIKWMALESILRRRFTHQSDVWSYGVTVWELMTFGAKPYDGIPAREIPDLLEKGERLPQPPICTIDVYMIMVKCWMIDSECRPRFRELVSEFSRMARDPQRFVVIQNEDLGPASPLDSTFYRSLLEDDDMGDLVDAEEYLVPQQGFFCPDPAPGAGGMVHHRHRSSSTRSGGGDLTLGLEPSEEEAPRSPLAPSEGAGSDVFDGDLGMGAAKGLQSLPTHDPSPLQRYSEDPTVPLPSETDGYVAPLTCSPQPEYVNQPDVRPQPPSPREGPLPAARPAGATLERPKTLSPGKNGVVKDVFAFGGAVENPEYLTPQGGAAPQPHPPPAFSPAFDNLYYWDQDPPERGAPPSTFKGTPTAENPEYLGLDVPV

The compound `CNC(=O)c1cc(Oc2ccc(NC(=O)Nc3cc(C(F)(F)F)c(Cl)cc3OC)cc2Cl)ccn1` [Entry 97, N-[4-chloro-2-methoxy-5-(trifluoromethyl)phenyl]({3-chloro-4-[2-(N-methylcarbamoyl)(4-pyridyloxy)]phenyl}amino)carboxamide] came in with a melting point of 220 to 221 °C.

As to `CCNC(=O)c1cc(Oc2ccc(NC(=O)Nc3cc(C(F)(F)F)c(Cl)cc3OC)cc2)ccn1` [Entry 99, N-[4-chloro-2-methoxy-5-(trifluoromethyl)phenyl]({4-[2-(N-ethylcarbamoyl)(4-pyridyloxy)]phenyl}amino)carboxamide], the melting point lay in the range of 180 to 181 °C.

In turn, `CNC(=O)c1cc(Oc2ccc(NC(=O)Nc3cc(C(F)(F)F)ccc3OC)c(Cl)c2)ccn1` [Entry 17, ({2-chloro-4-[2-(N-methylcarbamoyl)(4-pyridyloxy)]phenyl}amino)-N-[2-methoxy-5-(trifluoromethyl)phenyl]carboxamide] returned a melting point of 187 to 188 °C. Consider `COc1ccc(C(F)(F)F)cc1NC(=O)Nc1ccc(Oc2ccnc(C(N)=O)c2)cc1` [Entry 14, 4-[4-({N-[2-methoxy-5-(trifluoromethyl)phenyl]carbamoyl}amino)phenoxy]pyridine-2-carboxamide], for which the melting point was 114 to 117 °C.

`CCNC(=O)c1cc(Oc2ccc(NC(=O)Nc3cc(C(F)(F)F)ccc3OC)cc2)ccn1` [Entry 19, ({4-[2-(N-ethylcarbamoyl)(4-pyridyloxy)]phenyl}amino)-N-[2-methoxy-5-(trifluoromethyl)phenyl]carboxamide] displayed a melting point of 194 to 196 °C. Turning to `CNC(=O)c1cc(Oc2ccc(NC(=O)Nc3ccc(Cl)c(C(F)(F)F)c3)c(Cl)c2)ccn1` [Entry 49, {4-[3-chloro-4-({[4-chloro-3-(trifluoromethyl)phenyl]amino}carbonylamino)phenoxy](2-pyridyl)}-N-methylcarboxamide], the melting point is 147 to 151 °C. `CNC(=O)c1cc(Oc2ccc(NC(=O)Nc3cc(C(F)(F)F)c(Cl)cc3OC)c(Cl)c2)ccn1` [Entry 96, N-[4-chloro-2-methoxy-5-(trifluoromethyl)phenyl]({2-chloro-4-[2-(N-methylcarbamoyl)(4-pyridyloxy)]phenyl}amino)carboxamide] displayed a melting point of 244 to 245 °C. The same measure, in the same setting: then `CNC(=O)c1cc(Oc2ccc(NC(=O)Nc3cc(C(F)(F)F)ccc3OC)cc2Cl)ccn1` [Entry 20, ({3-chloro-4-[2-(N-methylcarbamoyl)(4-pyridyloxy)]phenyl}amino)-N-[2-methoxy-5-(trifluoromethyl)phenyl]carboxamide], with 214 to 216 °C. As for `CNC(=O)c1cc(Oc2ccc(NC(=O)Nc3cc(C(F)(F)F)ccc3OC)c(C)c2)ccn1` [Entry 16, {4-[4-({N-[2-methoxy-5-(trifluoromethyl)phenyl]carbamoyl}amino)-3-methylphenoxy](2-pyridyl)}-N-methylcarboxamide], the melting point lay within 210 to 213 °C. On the same count and under the same terms, the same measure for `CNC(=O)c1cc(Sc2ccc(NC(=O)Nc3cc(C(F)(F)F)ccc3OC)cc2)ccn1` [Entry 27, N-[2-methoxy-5-(trifluoromethyl)phenyl]({4-[2-(N-methylcarbamoyl)(4-pyridylthio)]phenyl}amino)carboxamide]: 218 to 219 °C; for `CCNC(=O)c1cc(Oc2ccc(NC(=O)Nc3ccc(Cl)c(C(F)(F)F)c3)cc2)ccn1` [Entry 51, N-[4-chloro-3-(trifluoromethyl)phenyl]({4-[2-(N-ethylcarbamoyl)(4-pyridyloxy)]phenyl}amino)carboxamide]: 187 to 189 °C. Same read-out and setting: then `CNC(=O)c1cc(Oc2ccc(NC(=O)Nc3ccc(Br)c(C(F)(F)F)c3)cc2Cl)ccn1` [Entry 87, {4-[4-({[4-bromo-3-(trifluoromethyl)phenyl]amino}carbonylamino)-2-chlorophenoxy](2-pyridyl)}-N-methylcarboxamide], with 217 to 219 °C; and `CNC(=O)c1cc(Oc2ccc(NC(=O)Nc3cc(C(F)(F)F)c(Cl)cc3OC)cc2)ccn1` [Entry 95, N-[4-chloro-2-methoxy-5-(trifluoromethyl)phenyl]({4-[2-(N-methylcarbamoyl)(4-pyridyloxy)]phenyl}amino)carboxamide], with 140 to 144 °C. Turning to `CCNC(=O)c1cc(Oc2ccc(NC(=O)Nc3ccc(Br)c(C(F)(F)F)c3)cc2)ccn1` [Entry 88, N-[4-bromo-3-(trifluoromethyl)phenyl]({4-[2-(N-ethylcarbamoyl)(4-pyridyloxy)]phenyl}amino)carboxamide], the melting point was 183 to 184 °C. With `CNC(=O)c1cc(Oc2ccc(NC(=O)Nc3ccc(Cl)c(C(F)(F)F)c3)cc2)ccn1` [N-[4-chloro-3-(trifluoromethyl)phenyl]-N′-{4-[2-N-methylcarbamoyl-4-pyridyloxy]phenyl}urea], on HER2 Receptor, the “IC50 (nM)” value is on record as “INACTIVE”. Besides, the figures for the “growth of MIA PaCa-2 tumors inhibited” value in data set [1] (10 mg/kg/dose), in [1] (30 mg/kg/dose) and in [1] (100 mg/kg/dose) were 44%, 66% and 73%, respectively. Further, the half-maximal inhibitory concentration (IC50) worked out at 880 nM in [2], 80 nM in data set [3] and 402 nM with c-KIT phosphor-AKT. Besides, the “PET scan metabolic activity after treatment” value in the data set on melanoma (baseline vs. second cycle) is on record as “completely silent”. The “CT scan measurements by RECIST” value in the data set with melanoma (through cycle 6 of treatment) is “stable disease”. The results for the “growth of NCI-H460 tumors inhibited” value in data set [4] (10 mg/kg/dose) and in data set [4] (30 mg/kg/dose) were 27% and 56%, respectively. Also, the “percent of nuclei expressing pERK in the post-treatment biopsy” value in the data set on phospho-ERK is recorded as “decrease”.
